{"source": "paper PMC5218480", "about": "(PLoS ONE, 2017)", "tested_on": "MV-4-11 cells", "test": "Gene expression microarray analysis (Affymetrix PrimeView) and GSEA", "assay_type": "cell-based, human", "set-up": "RFU PODN (11730768_x_at) / Fold change /veh PODN (11730768_x_at) / RFU LINC00158 (11744669_a_at) / Fold change /veh LINC00158 (11744669_a_at) / RFU DUSP10 (11751237_a_at) / Fold change /veh DUSP10 (11751237_a_at) / RFU ID3 (11757404_x_at) / Fold change /veh ID3 (11757404_x_at) / RFU PLEKHG5 (11737974_s_at) / Fold change /veh PLEKHG5 (11737974_s_at) / RFU LRRC4B (11730491_at) / Fold change /veh LRRC4B (11730491_at) / RFU GIMAP4 (11747438_a_at) / Fold change /veh GIMAP4 (11747438_a_at) / RFU KRT8 (11758183_x_at) / Fold change /veh KRT8 (11758183_x_at) / RFU CNN1 (11734310_a_at) / Fold change /veh CNN1 (11734310_a_at) / RFU VPS37D (11726825_at) / Fold change /veh VPS37D (11726825_at) / RFU C10orf10 (11716522_x_at) / Fold change /veh C10orf10 (11716522_x_at) / RFU KIR2DL2 /// KIR2DL4 /// KIR2DL5A /// KIR2DL5B /// KIR2DS1 /// KIR2DS2 /// KIR2DS3 /// KIR2DS4 /// KIR3DL3 /// KIR3DL3 /// KIR3DS1 (11738374_at) / Fold change /veh KIR2DL2 /// KIR2DL4 /// KIR2DL5A /// KIR2DL5B /// KIR2DS1 /// KIR2DS2 /// KIR2DS3 /// KIR2DS4 /// KIR3DL3 /// KIR3DL3 /// KIR3DS1 (11738374_at) / RFU C1QL1 (11718748_at) / Fold change /veh C1QL1 (11718748_at) / RFU TMPRSS4 (11747572_a_at) / Fold change /veh TMPRSS4 (11747572_a_at) / RFU HAMP (11756126_x_at) / Fold change /veh HAMP (11756126_x_at) / RFU RNFT2 (11725882_a_at) / Fold change /veh RNFT2 (11725882_a_at) / RFU NR4A2 (11747474_a_at) / Fold change /veh NR4A2 (11747474_a_at) / RFU ABCC12 (11746883_a_at) / Fold change /veh ABCC12 (11746883_a_at) / RFU TMEM136 (11760407_x_at) / Fold change /veh TMEM136 (11760407_x_at) / RFU CLDN22 /// WWC2 (11732394_at) / Fold change /veh CLDN22 /// WWC2 (11732394_at) / RFU HLA-DPB1 (11760878_x_at) / Fold change /veh HLA-DPB1 (11760878_x_at) / RFU SPINT1 (11716480_a_at) / Fold change /veh SPINT1 (11716480_a_at) / RFU GAP43 (11754022_s_at) / Fold change /veh GAP43 (11754022_s_at) / RFU A4GNT (11735810_at) / Fold change /veh A4GNT (11735810_at) / RFU PRB3 (11715151_x_at) / Fold change /veh PRB3 (11715151_x_at) / RFU TUBB4B (11761932_at) / Fold change /veh TUBB4B (11761932_at) / RFU CAPN14 (11732068_a_at) / Fold change /veh CAPN14 (11732068_a_at) / RFU TMCC2 (11721928_a_at) / Fold change /veh TMCC2 (11721928_a_at) / RFU IRGQ (11745062_a_at) / Fold change /veh IRGQ (11745062_a_at) / RFU FAM174B (11720279_a_at) / Fold change /veh FAM174B (11720279_a_at) / RFU TMPRSS4 (11748680_a_at) / Fold change /veh TMPRSS4 (11748680_a_at) / RFU FAM212B (11763350_a_at) / Fold change /veh FAM212B (11763350_a_at) / RFU PLEKHG5 (11743358_a_at) / Fold change /veh PLEKHG5 (11743358_a_at) / RFU ZSCAN30 (11745921_a_at) / Fold change /veh ZSCAN30 (11745921_a_at) / RFU CMKLR1 (11741424_a_at) / Fold change /veh CMKLR1 (11741424_a_at) / RFU LOC101060620 /// MAPK8IP1 (11723275_at) / Fold change /veh LOC101060620 /// MAPK8IP1 (11723275_at) / RFU SPTSSB (11747773_x_at) / Fold change /veh SPTSSB (11747773_x_at) / RFU PRSS12 (11739890_at) / Fold change /veh PRSS12 (11739890_at) / RFU BIN1 (11741810_x_at) / Fold change /veh BIN1 (11741810_x_at) / RFU WNT11 (11732464_a_at) / Fold change /veh WNT11 (11732464_a_at) / RFU C10orf10 (11716521_a_at) / Fold change /veh C10orf10 (11716521_a_at) / RFU C5orf56 (11738089_at) / Fold change /veh C5orf56 (11738089_at) / RFU CYB561 (11721691_x_at) / Fold change /veh CYB561 (11721691_x_at) / RFU ANKRD19P (11752326_a_at) / Fold change /veh ANKRD19P (11752326_a_at) / RFU OR2T12 /// OR2T33 /// OR2T8 (11738714_s_at) / Fold change /veh OR2T12 /// OR2T33 /// OR2T8 (11738714_s_at) / RFU VCAN (11748164_a_at) / Fold change /veh VCAN (11748164_a_at) / RFU JSRP1 (11732532_at) / Fold change /veh JSRP1 (11732532_at) / RFU KRTAP10-11 (11738290_x_at) / Fold change /veh KRTAP10-11 (11738290_x_at) / RFU MYO3A (11730013_a_at) / Fold change /veh MYO3A (11730013_a_at) / RFU EBF3 (11725865_a_at) / Fold change /veh EBF3 (11725865_a_at) / RFU CAMK2N1 (11719241_x_at) / Fold change /veh CAMK2N1 (11719241_x_at) / RFU C5orf56 (11738088_a_at) / Fold change /veh C5orf56 (11738088_a_at) / RFU OLFML3 (11715873_a_at) / Fold change /veh OLFML3 (11715873_a_at) / RFU LOC100653217 /// NTM (11731650_a_at) / Fold change /veh LOC100653217 /// NTM (11731650_a_at) / RFU MAPK11 (11762145_a_at) / Fold change /veh MAPK11 (11762145_a_at) / RFU FIZ1 (11724087_x_at) / Fold change /veh FIZ1 (11724087_x_at) / RFU OASL (11726364_x_at) / Fold change /veh OASL (11726364_x_at) / RFU SOX15 (11748057_x_at) / Fold change /veh SOX15 (11748057_x_at) / RFU CD79A (11719716_a_at) / Fold change /veh CD79A (11719716_a_at) / RFU HIST1H1D (11736915_at) / Fold change /veh HIST1H1D (11736915_at) / RFU CASKIN2 (11723855_a_at) / Fold change /veh CASKIN2 (11723855_a_at) / RFU LOC730098 (11760151_x_at) / Fold change /veh LOC730098 (11760151_x_at) / RFU OR4N2 (11742367_at) / Fold change /veh OR4N2 (11742367_at) / RFU PRRT2 (11749266_a_at) / Fold change /veh PRRT2 (11749266_a_at) / RFU SNX32 (11753110_a_at) / Fold change /veh SNX32 (11753110_a_at) / RFU CDHR5 (11726645_a_at) / Fold change /veh CDHR5 (11726645_a_at) / RFU RCAN1 (11760418_a_at) / Fold change /veh RCAN1 (11760418_a_at) / RFU FAM167A (11723789_a_at) / Fold change /veh FAM167A (11723789_a_at) / RFU FAM26E (11764081_at) / Fold change /veh FAM26E (11764081_at) / RFU ISYNA1 (11749810_s_at) / Fold change /veh ISYNA1 (11749810_s_at) / RFU ACY1 (11761880_at) / Fold change /veh ACY1 (11761880_at) / RFU 11764098_at / Fold change /veh 11764098_at / RFU SAMD14 (11745864_x_at) / Fold change /veh SAMD14 (11745864_x_at) / RFU NPB (11741838_a_at) / Fold change /veh NPB (11741838_a_at) / RFU TMPRSS6 (11731388_a_at) / Fold change /veh TMPRSS6 (11731388_a_at) / RFU KRTAP10-2 (11738614_at) / Fold change /veh KRTAP10-2 (11738614_at) / RFU ARHGAP8 /// PRR5-ARHGAP8 (11727945_x_at) / Fold change /veh ARHGAP8 /// PRR5-ARHGAP8 (11727945_x_at) / RFU KRTAP5-7 /// NADSYN1 (11734609_at) / Fold change /veh KRTAP5-7 /// NADSYN1 (11734609_at) / RFU RASL12 (11751679_a_at) / Fold change /veh RASL12 (11751679_a_at) / RFU CDKN2B (11736163_a_at) / Fold change /veh CDKN2B (11736163_a_at) / RFU PRF1 (11729649_at) / Fold change /veh PRF1 (11729649_at) / RFU, ZNF638 /// ZNF638-IT1 / Fold change vs veh, ZNF638 /// ZNF638-IT1 / RFU, PANK3 / Fold change vs veh, PANK3 / RFU, SH3YL1 / Fold change vs veh, SH3YL1 / RFU, ZEB2 / Fold change vs veh, ZEB2 / RFU, NRIP1 / Fold change vs veh, NRIP1 / RFU, PTTG1IP / Fold change vs veh, PTTG1IP / RFU, CAPN2 / Fold change vs veh, CAPN2 / RFU, MED14 / Fold change vs veh, MED14 / RFU, SNORA58 / Fold change vs veh, SNORA58 / RFU, C1orf63 / Fold change vs veh, C1orf63 / RFU, LRRFIP1 / Fold change vs veh, LRRFIP1 / RFU, NDUFAF7 / Fold change vs veh, NDUFAF7 / RFU, SLC12A2 / Fold change vs veh, SLC12A2 / RFU, IBTK / Fold change vs veh, IBTK / RFU, ESF1 / Fold change vs veh, ESF1 / Fold change vs veh, TMEM50B / RFU, TAOK1 / Fold change vs veh, TAOK1 / RFU, ACBD3 / Fold change vs veh, ACBD3 / RFU, TMA16 / Fold change vs veh, TMA16 / RFU, RWDD3 / Fold change vs veh, RWDD3 / RFU, BCAT1 / Fold change vs veh, BCAT1 / RFU, EDEM3 / Fold change vs veh, EDEM3 / RFU, TMEM33 / Fold change vs veh, TMEM33 / RFU, WDR75 / Fold change vs veh, WDR75 / RFU, AHCTF1 / Fold change vs veh, AHCTF1 / RFU, TFRC / Fold change vs veh, TFRC / RFU, ZDHHC17 / Fold change vs veh, ZDHHC17 / RFU, NOM1 / Fold change vs veh, NOM1 / RFU, ARL8B / Fold change vs veh, ARL8B / RFU, ZBTB11 / Fold change vs veh, ZBTB11 / RFU, TAMM41 / Fold change vs veh, TAMM41 / RFU, KIAA1704 /// LOC100996395 / Fold change vs veh, KIAA1704 /// LOC100996395 / RFU, ING1 / Fold change vs veh, ING1 / RFU, TRMT61B / Fold change vs veh, TRMT61B / RFU, FUBP3 / Fold change vs veh, FUBP3 / RFU, TP53 / Fold change vs veh, TP53 / RFU, TNKS2 / Fold change vs veh, TNKS2 / RFU, ZFP14 / Fold change vs veh, ZFP14 / RFU, ACTR2 / Fold change vs veh, ACTR2 / RFU, PPP3R1 / Fold change vs veh, PPP3R1 / RFU, PIK3R1 / Fold change vs veh, PIK3R1 / RFU, HNRNPA1 / Fold change vs veh, HNRNPA1 / RFU, RNF170 / Fold change vs veh, RNF170 / RFU, ZNF28 / Fold change vs veh, ZNF28 / RFU, RNGTT / Fold change vs veh, RNGTT / RFU, OGT / Fold change vs veh, OGT / RFU, BRD1 / Fold change vs veh, BRD1 / RFU, MARS / Fold change vs veh, MARS / RFU, ZNF655 / Fold change vs veh, ZNF655 / RFU, FAHD1 / Fold change vs veh, FAHD1 / RFU, BDP1 / Fold change vs veh, BDP1 / RFU, LRRCC1 / Fold change vs veh, LRRCC1 / RFU, ARID1A / Fold change vs veh, ARID1A / RFU, ZNF146 / Fold change vs veh, ZNF146 / RFU, ZNF330 / Fold change vs veh, ZNF330 / RFU, GPN3 / Fold change vs veh, GPN3 / RFU, C9orf123 / Fold change vs veh, C9orf123 / RFU, N4BP2L2 / Fold change vs veh, N4BP2L2 / RFU, ARFIP1 / Fold change vs veh, ARFIP1 / RFU, FAM179B / Fold change vs veh, FAM179B / RFU, BCL10 / Fold change vs veh, BCL10 / RFU, UHRF1BP1L / Fold change vs veh, UHRF1BP1L / RFU, BET1 / Fold change vs veh, BET1 / RFU, CNOT2 / Fold change vs veh, CNOT2 / RFU, ZNF268 / Fold change vs veh, ZNF268 / Fold change vs veh, ZNF507 / RFU, DGCR2 / Fold change vs veh, DGCR2 / RFU, WDSUB1 / Fold change vs veh, WDSUB1 / Fold change vs veh, HSP90B1 /// MIR3652 / RFU, ADSS / Fold change vs veh, ADSS / RFU, GK / Fold change vs veh, GK / RFU, ZNF148 / Fold change vs veh, ZNF148 / RFU, TAF9 / Fold change vs veh, TAF9 / RFU, SLC1A5 / Fold change vs veh, SLC1A5 / RFU, SLMO2 / Fold change vs veh, SLMO2 / RFU, ABCC4 / Fold change vs veh, ABCC4 / RFU, LOC101060439 /// RAP1B / Fold change vs veh, LOC101060439 /// RAP1B / RFU, RFX7 / Fold change vs veh, RFX7 / RFU, GTPBP10 / Fold change vs veh, GTPBP10 / RFU, CNEP1R1 / Fold change vs veh, CNEP1R1 / RFU, BIVM-ERCC5 /// ERCC5 / Fold change vs veh, BIVM-ERCC5 /// ERCC5 / RFU, ILF3 / Fold change vs veh, ILF3 / RFU 11762660_at / Fold change /veh 11762660_at / RFU VCAN (11757783_s_at) / Fold change /veh VCAN (11757783_s_at) / RFU DDX43 (11728927_at) / Fold change /veh DDX43 (11728927_at) / RFU KRT8 (11758188_x_at) / Fold change /veh KRT8 (11758188_x_at) / RFU NKD1 (11759106_at) / Fold change /veh NKD1 (11759106_at) / RFU SRD5A1 (11742802_a_at) / Fold change /veh SRD5A1 (11742802_a_at) / RFU TPSAB1 /// TPSB2 (11721975_s_at) / Fold change /veh TPSAB1 /// TPSB2 (11721975_s_at) / RFU GSTM3 (11746129_a_at) / Fold change /veh GSTM3 (11746129_a_at) / RFU IL23R (11737362_x_at) / Fold change /veh IL23R (11737362_x_at) / RFU TMEM51 (11727254_a_at) / Fold change /veh TMEM51 (11727254_a_at) / RFU PIWIL2 (11732686_x_at) / Fold change /veh PIWIL2 (11732686_x_at) / RFU ORM1 (11744905_x_at) / Fold change /veh ORM1 (11744905_x_at) / RFU CCDC152 (11743942_at) / Fold change /veh CCDC152 (11743942_at) / RFU ECM1 (11717891_a_at) / Fold change /veh ECM1 (11717891_a_at) / RFU IL23R (11748794_a_at) / Fold change /veh IL23R (11748794_a_at) / RFU TNFAIP8L3 (11732012_x_at) / Fold change /veh TNFAIP8L3 (11732012_x_at) / RFU MBOAT4 (11741988_at) / Fold change /veh MBOAT4 (11741988_at) / RFU 11764193_at / Fold change /veh 11764193_at / RFU TMEM53 (11763286_at) / Fold change /veh TMEM53 (11763286_at) / RFU MAGEB2 (11727129_at) / Fold change /veh MAGEB2 (11727129_at) / RFU TMEM200A (11744735_a_at) / Fold change /veh TMEM200A (11744735_a_at) / RFU CCDC152 (11751479_a_at) / Fold change /veh CCDC152 (11751479_a_at) / RFU FAM211A (11726209_a_at) / Fold change /veh FAM211A (11726209_a_at) / RFU RGS16 (11746705_a_at) / Fold change /veh RGS16 (11746705_a_at) / RFU VCAN (11755009_s_at) / Fold change /veh VCAN (11755009_s_at) / RFU RHOB (11743442_s_at) / Fold change /veh RHOB (11743442_s_at) / RFU RGS16 (11720943_a_at) / Fold change /veh RGS16 (11720943_a_at) / RFU RGS16 (11720944_at) / Fold change /veh RGS16 (11720944_at) / RFU, VPS4B / Fold change vs veh, VPS4B / RFU, CREB1 / Fold change vs veh, CREB1 / RFU, DNAJC13 / Fold change vs veh, DNAJC13 / RFU, GNAQ / Fold change vs veh, GNAQ / RFU, CDK5R1 / Fold change vs veh, CDK5R1 / RFU, ZRANB3 / Fold change vs veh, ZRANB3 / RFU, CUL4A / Fold change vs veh, CUL4A / RFU, CCNY / Fold change vs veh, CCNY / RFU, UFL1 / Fold change vs veh, UFL1 / RFU, COG3 / Fold change vs veh, COG3 / RFU, DIAPH2 / Fold change vs veh, DIAPH2 / RFU, SKA2 / Fold change vs veh, SKA2 / RFU, AFF3 / Fold change vs veh, AFF3 / RFU, LMF1 / Fold change vs veh, LMF1 / RFU, IPO11 / Fold change vs veh, IPO11 / RFU, DFFB / Fold change vs veh, DFFB / RFU, FOXP1 / Fold change vs veh, FOXP1 / RFU, CARD8 / Fold change vs veh, CARD8 / RFU, STRN3 / Fold change vs veh, STRN3 / RFU, ADK / Fold change vs veh, ADK / RFU, RASSF2 / Fold change vs veh, RASSF2 / RFU, WIPF1 / Fold change vs veh, WIPF1 / RFU, LARP1B / Fold change vs veh, LARP1B / RFU, RASA1 / Fold change vs veh, RASA1 / RFU, RB1 / Fold change vs veh, RB1 / RFU, PPFIA1 / Fold change vs veh, PPFIA1 / RFU, MAT2A / Fold change vs veh, MAT2A / RFU, CCT5 / Fold change vs veh, CCT5 / RFU, WDR92 / Fold change vs veh, WDR92 / RFU, CUX1 / Fold change vs veh, CUX1 / RFU, TTC7A / Fold change vs veh, TTC7A / RFU, TMEM135 / Fold change vs veh, TMEM135 / RFU, DEPTOR / Fold change vs veh, DEPTOR / RFU, CPM / Fold change vs veh, CPM / RFU, DNAJB6 / Fold change vs veh, DNAJB6 / RFU, CACNA2D3 / Fold change vs veh, CACNA2D3 / RFU, DTX4 / Fold change vs veh, DTX4 / RFU, TFCP2 / Fold change vs veh, TFCP2 / RFU, GMCL1 /// GMCL1P1 / Fold change vs veh, GMCL1 /// GMCL1P1 / RFU, AEBP2 / Fold change vs veh, AEBP2 / RFU, SNHG1 /// SNORD22 /// SNORD25 /// SNORD26 /// SNORD27 /// SNORD28 /// SNORD29 /// SNORD31 / Fold change vs veh, SNHG1 /// SNORD22 /// SNORD25 /// SNORD26 /// SNORD27 /// SNORD28 /// SNORD29 /// SNORD31 / Fold change (Aza/veh), C12orf56 (ProbeSet 11735607_a_at) / Fold change (ACY-1035/veh), C12orf56 (ProbeSet 11735607_a_at) / Fold change (Aza/veh), FGFR1OP (ProbeSet 11751329_s_at) / Fold change (ACY-1035/veh), FGFR1OP (ProbeSet 11751329_s_at) / Fold change (Aza/veh), VPS36 (ProbeSet 11739960_a_at) / Fold change (ACY-1035/veh), VPS36 (ProbeSet 11739960_a_at) / RFU SYPL1 (11715823_x_at) / Fold change /veh SYPL1 (11715823_x_at) / RFU IGFBP7 (11715501_s_at) / Fold change /veh IGFBP7 (11715501_s_at) / RFU REEP3 (11722064_at) / Fold change /veh REEP3 (11722064_at) / RFU IGLL1 (11728026_x_at) / Fold change /veh IGLL1 (11728026_x_at): dose or concentration left out as unconfirmed", "conditions": "MV-4-11 cells, 48 hours"}
{"compound": "Nc1ccc(-c2cccs2)cc1NC(=O)c1ccc2c(c1)cc(C1CC1)n2CCN1CCOCC1", "note": "[ACY-1035]", "values": [{"measurement": "Fold change /veh HLA-DPB1 (11760878_x_at)", "result": 1.16}]}
